In US20230277511A1, “RAPAMYCIN (RAPA) COMPOSITION AND PREPARATION METHOD THEREOF” (priority 2020, published 2023):

Tested on: AS model mice (ApoE−/− mice)
Assay: Therapeutic effect on AS in AS model mice (plaque area)
Format: in vivo
Conditions: 1.5 mg/kg intraperitoneally every two days for 3 months, mean±SD, FIG. 10
Procedure: Animal: Apolipoprotein gene-knockout mice (ApoE−/− mice) each with a weight of 18 g to 25 g were purchased from Peking University Laboratory Animal Center.
Construction of AS model mice: The mice were raised to be 8 weeks old in an SPF-grade environment (room temperature: 23° C., relative humidity: 65%, and 12 h light-dark cycle) and then fed with a high-fat feed for 12 weeks to obtain the AS model mice, and then each of the AS model mice was administered. Blood vessels were collected and stained, and a proportion of a plaque area was calculated according to the following formula: AA:AA=P/PO. The data were expressed by mean±standard deviation (SD). The t-test was adopted for statistical analysis. P<0.05 indicated a significant difference. All data were analyzed by software.
Grouping and administration regimen: Blank group: Each of the mice was intraperitoneally injected with 0.2 mL of NS every two days. Control group: Each of the mice was intraperitoneally injected with a RAPA solution diluted with NS to a desired concentration (administration amount: 1.5 mg/kg) every two days. Drug group: Each of the mice was intraperitoneally injected with the RAPA composition in Example 4 at 1.5 mg/kg every two days. The administration was conducted continuously for 3 months, during which state changes in mice were observed. […]

## CO[C@H]1C[C@@H]2CC[C@@H](C)[C@@](O)(O2)C(=O)C(=O)N2CCCC[C@H]2C(=O)O[C@H]([C@H](C)C[C@@H]2CC[C@@H](O)[C@H](OC)C2)CC(=O)[C@H](C)/C=C(\C)[C@@H](O)[C@@H](OC)C(=O)[C@H](C)C[C@H](C)/C=C/C=C/C=C/1C [RAPA, rapamycin]
  plaque area/total vascular area: 48.33%±2.851%
